Test results: PubChem BioAssay AID1996
In brackets after ≈: the same amount, converted by molar mass.

settings: buffer; pH 7.4; 200.0 µM

Row | Compound | solubility kinetic [µg/mL]
1 | COc1ccc(/C=C/C(=O)Nc2ccncc2)cc1OC | 29.8 (≈ 105 µM)
2 | O=S(=O)(Nc1ccc(Br)cc1)c1cccc2nonc12 | > 53.1
3 | O=C(Nc1c(S(=O)(=O)c2ccccc2)csc1Br)c1ccccc1Cl | 42.9 (≈ 93.9 µM)
4 | CC(=O)c1c(C)nc(Nc2nc(C)c3cc(C)ccc3n2)nc1C | > 48.2
5 | CC(=O)c1ccc(NS(=O)(=O)c2ccc3c(c2)CCC(=O)N3)cc1 | 48.3 (≈ 140 µM)
6 | Cc1ccc(C(C)C)cc1OCC(=O)Nc1ccccc1N1CCCC1 | < 0.4
7 | Cc1ccc2cccc(OCc3ccc(F)cc3)c2n1 | 6 (≈ 22.4 µM)
8 | CCC(C)NC(=O)CN1C(=O)NC2(CCc3ccccc3C2)C1=O (stereo not given) | > 49.4
9 | COc1ccccc1Nc1nc(NCc2ccco2)nc(N)c1[N+](=O)[O-] | < 0.1
10 | O=S(=O)(c1ccc(Cl)cc1)N1CCC(n2cccc2)CC1 | 0.6 (≈ 1.85 µM)
11 | COc1ccc(NC(=O)CSC2=NCCN2)cc1.Cl | > 45.3
12 | OC1CCC(NC(=S)Nc2ccc(SC(F)F)cc2)CC1 (stereo not given) | 43.8 (≈ 132 µM)
13 | COc1cc(/C=N/c2oc(C)c(C)c2C#N)cc(Br)c1O | 8 (≈ 22.9 µM)
14 | CC(C)Cn1c(-c2cccnc2)nc2c1c(=O)[nH]c(=O)n2CC(C)C | 45.7 (≈ 134 µM)
15 | CCc1ccc(OCC(=O)O/N=C(\N)c2ccccn2)cc1 | 37.9 (≈ 127 µM)
16 | O=C(OCc1nc2ccccc2s1)c1ccc([N+](=O)[O-])o1 | 1.1 (≈ 3.62 µM)
17 | Cc1cc(Br)c(NC(=O)COC(=O)CC2CC3CCC2C3)c(Br)c1 (stereo not given) | 7.7 (≈ 16.8 µM)
18 | O=C(CNC(=O)c1ccccc1F)NCc1ccccn1 | > 43.1
19 | Cc1ccc(OCCCN2CCOCC2)cc1 | 26.7 (≈ 113 µM)
20 | O=C(Nc1ccc2c(c1)CCC2)Nc1ccccc1F | 1.6 (≈ 5.92 µM)

Row | Compound | solubility kinetic [µg/mL]
21 | CCc1ccc(S(=O)(=O)N2CCN(C(=O)c3cccnc3)CC2)cc1 | > 53.9
22 | Cc1cccc(C)c1Nc1nnc(SCC(=O)NCCCN2CCCC2=O)s1 | > 62.9
23 | COc1ccc2occ(C(=O)c3ccc(N)cc3)c2c1 | 1.7 (≈ 6.36 µM)
24 | C=CCNC(=S)Nc1ccc(Cl)cc1F | > 36.7
25 | Nc1cc([N+](=O)[O-])cc2oc(-c3ccccc3)cc12 | < 0.3
26 | Cc1ccccc1-c1nnc(CS(=O)(=O)c2ccccc2)o1 | > 47.2
27 | COc1ccc(CN(C)CC(=O)Nc2ccccc2C(=O)NC2CC2)cc1F | 56 (≈ 145 µM)
28 | O=C(CSc1nnc(-c2ccccc2F)o1)NC1CC1 | > 44
29 | Cc1n(Cc2ccccc2)c2cc([N+](=O)[O-])ccc2[n+]1Cc1ccccc1.[Cl-] | > 59.1
30 | COc1ccc(C(=O)NC(=S)NCc2ccco2)cc1 | 4.6 (≈ 15.8 µM)
31 | CCC1Sc2ccccc2N(CC(=O)NC2CCCCC2)C1=O (stereo not given) | > 49.9
32 | CC(C)CNC(=O)COC(=O)Cc1ccc(Cl)cc1 | 36.1 (≈ 127 µM)
33 | CSc1ccccc1C(=O)NCCSc1ccc(C)cc1 | 17.2 (≈ 54.2 µM)
34 | O=C(Nc1ccccc1Cl)c1cc[n+]([O-])cc1 | > 37.3
35 | COc1ccc(C)cc1NC(=O)C1CCCCN1S(=O)(=O)c1ccccc1 (stereo not given) | 12 (≈ 30.9 µM)
36 | CC(C)Cc1nc(N2CCNCC2)c(C#N)c2c1CCC2 | 41.1 (≈ 145 µM)
37 | COc1ccc(NC(=O)c2cc(C)no2)cc1 | > 34.8
38 | O=C(COC(=O)COc1ccccc1)Nc1cccnc1Cl | > 48.1
39 | CN(C(=O)COC(=O)c1cc2ccccc2cc1O)c1ccccc1 | 3.4 (≈ 10.1 µM)
40 | COc1ccccc1NC(=O)NCCN1CCNC1=O | 39.7 (≈ 143 µM)

Row | Compound | solubility kinetic [µg/mL]
41 | OC1C2CN3CN(C2)CC1(c1ccccc1)C3 (stereo not given) | > 34.5
42 | O=Cc1cnc(N2CCN(c3ccccc3)CC2)s1 | > 41
43 | CC(C)C(NC(=O)C1CCCCC1)C(=O)NCCc1ccccc1 (stereo not given) | 1.3 (≈ 3.93 µM)
44 | CC(NC(=S)Nc1ccc(F)cc1)c1ccccc1 (stereo not given) | 27.7 (≈ 101 µM)
45 | OCCNc1nc2ccccc2n1CC(O)c1ccccc1 (stereo not given) | 40.4 (≈ 136 µM)
46 | CCOC(=O)Cc1csc(NS(=O)(=O)c2ccc(C(F)(F)F)cc2)n1 | > 59.2
47 | CC(NC(=O)COc1ccccc1)C(=O)N1CCN(c2ccc(F)cc2)CC1 (stereo not given) | > 57.8
48 | COc1ccc(CCNc2nc(C)cc(C)c2C#N)cc1OC | 32.7 (≈ 105 µM)
49 | Cc1sc(NC(=O)C2=COCCO2)c(C(N)=O)c1C | > 42.3
50 | O=S(=O)(c1ccc(F)cc1)N1CCc2ccccc2C1 | 1.2 (≈ 4.12 µM)
51 | CC(C)(C)NC(=O)[C@H]1CC[C@H]2[C@@H]3CC[C@H]4NC(=O)C=C[C@]4(C)[C@H]3CC[C@]12C | 52.8 (≈ 142 µM)
52 | CCCCN(CC)Cc1c(O)ccc2c(-c3ccccc3)cc(=O)oc12 | 36.1 (≈ 103 µM)
53 | COC(=O)c1sc(=S)n(Cc2ccccc2)c1C | 7.1 (≈ 25.4 µM)
54 | CC(C)N(C(=O)c1ccc(-c2ccccc2F)cc1)C(C)C | 23.4 (≈ 78.2 µM)
55 | O=C1CCc2ccc(NC(=O)C3CC3)cc2N1 | > 34.5
56 | Cn1c(/C(C#N)=C/c2ccc(O)cc2)nc2ccccc21 | 5.5 (≈ 20 µM)
57 | Cc1csc(NC(=O)CSc2ccccc2F)n1 | > 42.4
58 | COc1cc(Cl)c(C)cc1NC(=O)CC1CCCC1 | 2 (≈ 7.1 µM)
59 | CSc1ccccc1NC(=S)NC1CCCC1 | > 40
60 | CCN1C(=O)CSC1=Nc1ccc(Cl)c(Cl)c1 | 9.8 (≈ 33.9 µM)
